Series [1] deals with Sprague Dawley rats. As to the kind of experiment: Neuronal vacuolization and necrosis histopathology after single high dose injection in rats. The series is classed as in vivo, rat. As to conditions: for Average number of vacuoles / Average number of necrotic foci: males and females, all sections; for Average number of vacuoles / Number of animals with necrotic foci: dexanabinol 50 mg/kg i.v.; for Average number of vacuoles / Average number of necrotic foci / Number of animals with necrotic foci / Clinical signs post-dose: MK-801 5 mg/kg s.c.; for Average number of necrotic foci: dexanabinol 50 mg/kg i.v. in CREMOPHOR EL:ethanol; for Number of animals with necrotic foci: cingulated gyrus, males and females combined; for Clinical signs post-dose: study day 1, dexanabinol 50 mg/kg i.v. (undistinguishable from vehicle, transient). The source says: The purpose of this study was to characterize the potential of dexanabinol to protect against neuronal vacuolization and cell death in the retrosplenial and cingulated neocortex regions of the brain in Sprague Dawley rats following intravenous administration of a single high dose of […]. It has previously been reported that neuronal vacuolization and cell death are among the commonly detected adverse side effects of NMDA antagonists in rodents (Olney J. W. et al., Science 244: 1360-2, 1989).
Sprague Dawley rats (140-250 g body weight, Charles River Laboratory, Mich., USA) were maintained under controlled environmental conditions, with 12:12 hour light dark cycle, and had free access to food and water. The animals were acclimated for at least seven days prior to study day 1. Animals were randomly assigned to the following treatment groups: saline (negative control), CREMOPHOR EL®:ethanol (70:30 w/w respectively supplemented with 0.5% w/v dl-α-tocopherol and 0.01% w/v edetic acid; vehicle) and 50 mg/kg dexanabinol. For all groups the volume dosage was 10 ml/kg and the treatments were administered via bolus intravenous injection into the lateral tail vein of animals. CREMOPHOR EL®:ethanol and dexanabinol 50 mg/ml were diluted 1:10 into saline prior to injection. M-801 at a dose of 5 mg/kg administered subcutaneously at a volume dosage of 5 ml/kg was used as positive control, its vehicle being saline.
Each treatment group consisted of six males and six females, which were at first analyzed separately to assess gender influence. Clinical observations, including observations for mortality or moribundity, were recorded pretest, once daily, and when a change was noted during the twice-daily observations. Body weights were recorded pretest and predose on study day 1. Six animals per sex per group per time point were submitted for necropsy at approximately 4 and 12 hours post-dose, and 1, 3, and 7 days post-dose. At the predetermined time points, the animals were humanely euthanized via intraperitoneal injection of 100 mg/kg sodium pentobarbital to achieve deep anesthesia.
Whole body perfusion were performed using heparinized saline for approximately one minute followed by 10% neutral buffered fornalin for approximately eight to ten minutes on all animals. The calvarium was removed, leaving the brain in the cranial cavity. The heads (with the brain in the cranial cavity) or brains (removed only after 24 hours left in situ in 10% neutral buffered formalin) were placed into 10% neutral buffered formalin until further process toward pathological analysis.
The brains from all animals at all time points were processed and evaluated as follows. The brains from the 4 and 12 hours time point animals were removed and sectioned using a rat brain trimming matrix to yield two coronal sections including the posterior cingulated gyrus (retrosplenial area of the brain). All sections were embedded in glycol methacrylate, sectioned at approximately 2 microns, and stained with hematoxylin and eosin. Brains from the 1, 3 and 7 days post-dose animals were removed and sectioned to yield three coronal sections spanning the brain from the posterior cingulate gyrus and extending rostral to the level of the basal nuclei. These sections were embedded in paraffin and sectioned twice at approximately 5-8 microns, with one section stained with hematoxylin and eosin and the other with Fluoro-Jade B, which selectively stains dying neuronal cells. The slides were microscopically evaluated in a blinded fashion. No statistical analyses were performed.

The subject of series [2] is Sprague-Dawley male rats. As to the kind of experiment: Four vessel occlusion (4 VO) in rats, neurological score. In kind it is in vivo, rat. The source says:
This model was used to test the ability of dexanabinol or related compounds to act as neuroprotectant when administered prior to surgery. The blood supply to the rat brain arrives via the two vertebral and two common carotid arteries. Transient occlusion of all four vessels results in global ischemia, as would occur during cardiac arrest in humans. Global ischemia results in neurological deficits, including short-term memory deficits, and a selective loss of neurons, including pyramidal cells, in the CA1 field of the hippocampus, similarly to the situation observed in MCI. The ability of compounds to reduce the neurological deficits and increase neuronal survival in this model is considered indicative of their potential in preventing brain damage related to cardiac arrest, and is also predictive for ischemic damages and MCI caused by surgery, for instance cardiac surgery performed or not under cardiopulmonary bypass. […] Transient ischemia causes irreversible injury to a few, specific populations of highly vulnerable neurons.
Sprague-Dawley male rats (180-400 g body weight, Anilab, Israel) were anesthetized using 4% halothane for induction and 1% halothane for maintenance, in a mixture of 70% N2O and 30% O2. Animals were submitted to four-vessel occlusion according to the procedure of Pulsinelli et al. (Pulsinelli W. A. et al., Stroke 10: 267, 1979) in a two-stage operation. On the first day the vertebral arteries were occluded. A midline skin incision was performed above the spinal cord behind the skull occipital bone. Muscles were separated and cut until the C1 vertebra was isolated. The alar foramina were located and the vertebral arteries were coagulated via the alar foramina. Muscles and skin were closed in two layers. On the same day, the common carotid arteries (CCA) were isolated through a central neck midline incision. A loose suture material was positioned around them and the skin was closed.
On the second day, the animals were lightly anesthetized using ether. The skin was opened and CCA were closed for 20 minutes with arterial clips. Animals were deprived of food, with free access to water, overnight between the two stages of the study. Loss of righting reflex was the principal criterion for assuring severe forebrain ischemia in the 4 VO model in the rat. Therefore, animals not showing this sign were not included in the study. […]
Animals were monitored for their general clinical appearance at predetermined time points: before vertebral occlusion; before and 5 hours after CCA occlusion; then 1, 2, and 3 days after CCA occlusion. Body weight was recorded at baseline and at each follow-up session.
The total neurological score was calculated by adding the results of all tests for each animal and the maximal score obtainable for normal animals is 16 points. […]

Series [3] relates to Sprague-Dawley male rats. The series is described as follows: Cognitive impairment assessment following 4 VO, Morris water maze. In kind it is in vivo, rat. On the procedure:
One week after CCA occlusion, the cognitive impairment was measured using a Morris water maze apparatus. The ability of the animals to perform in this test is predictive of their learning and memory capacity. A circular metal pool 150 cm in diameter and 74 cm in height was filled with water at 25° C. to a height of 54 cm. A platform 10 cm in diameter was placed 2 cm below the water surface. The pool was divided (virtually) into 4 equal surface areas identified by arbitrary north, south, east and west coordinates. The platform was located in the middle of the southwest quadrant 25 cm from the pool rim. The swim path was monitored by video camera connected to a computer (View Point, France). […] Animals that found the hidden platform were allowed to stay on it for 30 seconds.
Animals were tested in nine consecutive trials one week following the 4 VO and the learning capacity was measured as the amount of time spent by the animal swimming before finding the hidden platform. Each trial was performed for 1 minute and there were 5 minute intervals between the trials. One day later, eight days post-occlusion, the animals were tested again in order to assess their memory.
Three groups of at least 8 animals each were tested in this study: 1) sham operated animals; 2) operated animals treated 15 minutes before CCA occlusion with HPCD vehicle; 3) operated animals treated 15 minutes before CCA occlusion with 8 mg/kg dexanabinol, prepared and injected intravenously as previously described in example 2.
The average latency time in seconds elapsed until platform localization was calculated for each treatment group as an average of three consecutive trials. […] During the first six trials dexanabinol treated animals learned similarly to vehicle treated animals.

The subject of series [4] is individuals suffering from severe traumatic brain injury. As to conditions: severe traumatic brain injury patients; not significant statistically; cited from earlier work.

The structures appear in SMILES notation.

The values below come from patent US20050192341A1, “Non-psychotropic cannabinoids for prevention of cognitive impairment” (priority 2002, published 2005).

In the case of `CCCCCCC(C)(C)c1cc(O)c2c(c1)OC(C)(C)[C@H]1CC=C(CO)C[C@H]21` [Dexanabinol, 1,1-dimethyl-(3S,4S)-7-hydroxy-Δ^6-tetrahydrocannabinol], the “Average number of vacuoles” value in series [1] (4 hrs post-dosing) and in series [1] (12 hrs post-dosing) was “None” throughout. Further, the results for the “Average number of necrotic foci” value in series [1] (Day 1 post-dosing), in series [1] (Day 3 post-dosing) and in series [1] (Day 7 post-dosing) were 0.5, 0.6 and greater than 3, respectively. For the same molecule, the “Number of animals with necrotic foci” value in series [1] (Day 1 post-dosing), in series [1] (Day 3 post-dosing) and in series [1] (Day 7 post-dosing) was 0/12 each time. The “Highest tolerated dose in rats” value in series [1] (single dose, to the first approximation) is listed as roughly 50 mg/kg. Moreover, the Clinical signs post-dose entry in series [1] was “prostration and decreased activity”. The “Time to full recovery of neurological score to sham animals levels” value in series [2] (8 mg/kg i.v. 15 minutes before CCA occlusion) is no more than 72 hours. For the same molecule, the “Decrease in neurological score” value in series [2] (5 hours after occlusion, 8 mg/kg i.v. 15 minutes before CCA occlusion, maximal score 16 points) was “about 4 points”. In addition, in series [2] (48 hours post-occlusion, 8 mg/kg i.v.), the “Neurological score compared with sham operated group” value is “not statistically different from the sham operated group”. Further, the “Neurological outcome compared with vehicle treated or operated untreated animals” value in series [2] (from 24 hours post-occlusion on, 8 mg/kg i.v.) is recorded as “significantly better neurological outcome”. Besides, the “Average time to localize the hidden platform” value in series [3] (average over the ten trials measuring learning and memory, 8 mg/kg i.v., sham 34.8 seconds) worked out at 30.8 s. Moreover, in series [3] (average over the ten trials, 8 mg/kg i.v., difference not statistically significant), the “Time less than sham operated animals to localize the hidden platform” value came out at 4 s. In addition, the “Reduction in average time for platform localization over vehicle treated animals (memory)” value in series [3] (day 8 post-occlusion, 8 mg/kg i.v. 15 minutes before CCA occlusion) is roughly 22%. In series [3] (last three of nine trials, one week after 4 VO, 8 mg/kg i.v. 15 minutes before CCA occlusion), the “Reduction in average time for platform localization over vehicle control group (learning)” value is “more than 42%”. The “Neurological outcome as assessed by the Galveston Orientation and Amnesia Test” value in series [4] was “trend existed for the dexanabinol treated patients to achieve better neurological outcome”.

With `C[C@]12N[C@H](Cc3ccccc31)c1ccccc12` [MK-801, reference compound], the Clinical signs post-dose result in series [1] is “ataxia, tremors and prostration”.
